Source: US9708314B2, “Heterocyclic amide compound” (NISSAN CHEMICAL INDUSTRIES, LTD., priority 2013, dated 2017)

How the values were obtained:
Type in all cases: in vivo
Digitaria ciliaris = assay: Test Example 4: herbicidal effect by application to foliage (diluvial soil, plastic box)
Method in brief: (§1)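 Read-out is a 0–5 visual grade of herbicidal ratio (5: ≥90%, almost withered; 0: ≤5%) taken three weeks after treatment. Compound was applied as a diluted emulsion to stem and leaf parts of 14-day greenhouse-grown plants (25° C. to 30° C.) at rates expressed as g/ha.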

Chenopodium album = assay: as above
Method in brief: as §1

Setaria viridis = assay: as above
Method in brief: as §1

Alopecurus myosuroides = assay: as above
Method in brief: as §1

Avena fatua = assay: as above
Method in brief: as §1

Galium spurium = assay: as above; settings: Application herbicide amount 320 g/ha; foliage application
Method in brief: as §1

Lolium multiflorum Lam. = assay: as above
Method in brief: as §1

Amaranthus retroflexus = assay: as above
Method in brief: as §1

Veronica persica = assay: as above
Method in brief: as §1

Abutilon theophrasti = assay: as above
Method in brief: as §1

Stellaria media = assay: as above
Method in brief: as §1

[1] = system: Echinochloa crus-galli var. crus-galli; assay: as above
Method in brief: as §1

Apera spica-venti. = assay: as above
Method in brief: as §1

Brassica campestris L. = assay: Test Example 4: effect on crop by application to foliage (diluvial soil, plastic box)
Method in brief: as §1

[2] = system: Beta vulgaris ssp. vulgaris; assay: as above
Method in brief: as §1

Triticum aestivum = assay: as above
Method in brief: as §1

Zea mays = assay: as above
Method in brief: as §1

Glycine max = assay: as above
Method in brief: as §1

Monochoria vaginalis = assay: Test Example 1: herbicidal activity, application before weed generation in submerged conditions; settings: Application herbicide amount 320 g/ha; Seventeenth Table
Method in brief: (§2)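 Submerged pot test: alluvial soil, 4 cm water, seeds sown mixed, 2.5-leaf rice transplanted; emulsion in water applied to surface day of sowing, dose g/ha; greenhouse 25–30° C.; 3 wk; 0–5 rating.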

[3] = system: Echinochloa oryzacola Vasing.; assay: as above; settings: Application herbicide amount 320 g/ha; Seventeenth Table
Method in brief: as §2

Scirpus juncoides = assay: as above; settings: Application herbicide amount 320 g/ha; Seventeenth Table
Method in brief: as §2

[4] = system: directly sowed Oryza sativa; assay: Test Example 4: effect on crop by application to foliage (diluvial soil, plastic box); settings: application to foliage, application herbicide amount 320 g/ha
Method in brief: as §1

[5] = Application herbicide amount 320 g/ha, foliage application
[6] = application to foliage, application herbicide amount 320 g/ha

CC(C)c1nnc2c(C(=O)Nc3nnc(C[S+](C)[O-])o3)ccc(C(F)(F)F)n12 (stereo not drawn) [1-143]
F (Digitaria ciliaris) herbicidal effect grade (Digitaria ciliaris; [5]): 2 (Herbicidal ratio of 20% or more and less than 40%) | O (Chenopodium album) herbicidal effect grade (Chenopodium album; [5]): 4 (Herbicidal ratio of 70% or more and less than 90%) | G (Setaria viridis) herbicidal effect grade (Setaria viridis; [5]): 0 (Herbicidal ratio of 5% or less (almost no effect)) | J (Alopecurus myosuroides) herbicidal effect grade (Alopecurus myosuroides; [5]): 0 (Herbicidal ratio of 5% or less (almost no effect)) | I (Avena fatua) herbicidal effect grade (Avena fatua; [5]): 0 (Herbicidal ratio of 5% or less (almost no effect)) | Q (Galium spurium) herbicidal effect grade (Galium spurium): 2 (Herbicidal ratio of 20% or more and less than 40%) | K (Lolium multiflorum Lam.) herbicidal effect grade (Lolium multiflorum Lam.; [5]): 0 (Herbicidal ratio of 5% or less (almost no effect)) | N (Amaranthus retroflexus) herbicidal effect grade (Amaranthus retroflexus; [5]): 2 (Herbicidal ratio of 20% or more and less than 40%) | R (Veronica persica) herbicidal effect grade (Veronica persica; [5]): 3 (Herbicidal ratio of 40% or more and less than 70%) | M (Abutilon theophrasti) herbicidal effect grade (Abutilon theophrasti; [5]): 2 (Herbicidal ratio of 20% or more and less than 40%) | P (Stellaria media) herbicidal effect grade (Stellaria media; [5]): 3 (Herbicidal ratio of 40% or more and less than 70%) | H (Echinochloa crus-galli var. crus-galli) herbicidal effect grade [1, 5]: 4 (Herbicidal ratio of 70% or more and less than 90%) | L (Apera spica-venti.) herbicidal effect grade (Apera spica-venti.; [5]): 0 (Herbicidal ratio of 5% or less (almost no effect)) | g (Brassica campestris L.) effect on crop grade (Brassica campestris L.; [5]): 3 (Herbicidal ratio of 40% or more and less than 70%) | f (Beta vulgaris ssp. vulgaris) effect on crop grade [2, 5]: 2 (Herbicidal ratio of 20% or more and less than 40%) | e (Triticum aestivum) effect on crop grade (Triticum aestivum; [5]): 0 (Herbicidal ratio of 5% or less (almost no effect)) | c (Zea mays) effect on crop grade (Zea mays; [5]): 0 (Herbicidal ratio of 5% or less (almost no effect)) | d (Glycine max) effect on crop grade (Glycine max; [5]): 1 (Herbicidal ratio of 5% or more and less than 20%) | C: Monochoria vaginalis (herbicidal effect grade) (Monochoria vaginalis): 2 (Herbicidal ratio of 20% or more and less than 40%) | A: Echinochloa oryzicola Vasing. (herbicidal effect grade) [3]: 0 (Herbicidal ratio of 5% or less (almost no effect)) | B: Scirpus juncoides (herbicidal effect grade) (Scirpus juncoides): 0 (Herbicidal ratio of 5% or less (almost no effect))

CC(C)c1nnc2c(C(=O)N(C)c3nnnn3C)ccc(C(F)(F)F)n12 [2-023]
F: herbicidal effect on Digitaria ciliaris (Digitaria ciliaris; [6]): 1 (Herbicidal ratio of 5% or more and less than 20%) | O: herbicidal effect on Chenopodium album (Chenopodium album; [6]): 4 (Herbicidal ratio of 70% or more and less than 90%) | G: herbicidal effect on Setaria viridis (Setaria viridis; [6]): 1 (Herbicidal ratio of 5% or more and less than 20%) | J: herbicidal effect on Alopecurus myosuroides (Alopecurus myosuroides; [6]): 0 (Herbicidal ratio of 5% or less (almost no effect)) | I: herbicidal effect on Avena fatua (Avena fatua; [6]): 0 (Herbicidal ratio of 5% or less (almost no effect)) | K: herbicidal effect on Lolium multiflorum Lam. (Lolium multiflorum Lam.; [6]): 0 (Herbicidal ratio of 5% or less (almost no effect)) | N: herbicidal effect on Amaranthus retroflexus (Amaranthus retroflexus; [6]): 5 (Herbicidal ratio of 90% or more (almost completely withered)) | R: herbicidal effect on Veronica persica (Veronica persica; [6]): 4 (Herbicidal ratio of 70% or more and less than 90%) | M: herbicidal effect on Abutilon theophrasti (Abutilon theophrasti; [6]): 3 (Herbicidal ratio of 40% or more and less than 70%) | P: herbicidal effect on Stellaria media (Stellaria media; [6]): 3 (Herbicidal ratio of 40% or more and less than 70%) | H: herbicidal effect on Echinochloa crus-galli var. crus-galli [1, 6]: 4 (Herbicidal ratio of 70% or more and less than 90%) | L: herbicidal effect on Apera spica-venti. (Apera spica-venti.; [6]): 0 (Herbicidal ratio of 5% or less (almost no effect)) | g: effect on crop, Brassica campestris L. (Brassica campestris L.; [6]): 1 (Herbicidal ratio of 5% or more and less than 20%) | f: effect on crop, Beta vulgaris ssp. vulgaris [2, 6]: 4 (Herbicidal ratio of 70% or more and less than 90%) | b: effect on crop, directly sowed Oryza sativa [4]: 0 (Herbicidal ratio of 5% or less (almost no effect)) | e: effect on crop, Triticum aestivum (Triticum aestivum; [6]): 0 (Herbicidal ratio of 5% or less (almost no effect)) | c: effect on crop, Zea mays (Zea mays; [6]): 0 (Herbicidal ratio of 5% or less (almost no effect)) | d: effect on crop, Glycine max (Glycine max; [6]): 1 (Herbicidal ratio of 5% or more and less than 20%) | C: Monochoria vaginalis (herbicidal effect grade) (Monochoria vaginalis): 0 (Herbicidal ratio of 5% or less (almost no effect)) | A: Echinochloa oryzicola Vasing. (herbicidal effect grade) [3]: 2 (Herbicidal ratio of 20% or more and less than 40%) | B: Scirpus juncoides (herbicidal effect grade) (Scirpus juncoides): 1 (Herbicidal ratio of 5% or more and less than 20%)
